From article PMC6262455 (Cells, 2018)
Like-named read-outs stand apart in the source and are kept apart here.

Columns and labels:
Type in all cases: cell-based
[1] = test system: human breast adenocarcinoma (MCF-7); assay: cells; settings: for IC50: read-out: IC50 MCF-7; for SI MCF-7: SI = IC50 BALB/3T3 / IC50 MCF-7
Text: (§1) The BALB/3T3 cell line was purchased from the American Type Culture Collection (ATCC, Manassas, VA, USA), A549 and MCF-7 cell lines—from European Collection of Authenticated Cell Cultures (Salisbury, UK). The LoVo cell line was purchased from the American Type Culture Collection (ATCC, Manassas, VA, USA), and LoVo/DX by courtesy of Prof. E. Borowski (Technical University of Gdańsk, Gdańsk, Poland). All the cell lines are maintained in the Institute of Immunology and Experimental Therapy (IIET), Wroclaw, Poland. The human lung adenocarcinoma cell line was cultured in a mixture of OptiMEM and RPMI 1640 (1:1) medium (IIET, Wroclaw, Poland), supplemented with 5% foetal bovine serum (GE Healthcare, Logan UT, USA) and 2 mM L-glutamine (Sigma-Aldrich, Merck KGaA, Saint Louis, MO, USA). Human breast adenocarcinoma cell line was cultured in mixture of Eagle’s medium (IIET, Wroclaw, Poland), supplemented with 10% fetal bovine serum, 2 mM L-glutamine, 8 μg/mL insulin, and 1% amino-acids (Sigma-Aldrich, Merck KGaA, Saint Louis, MO, USA). […] Murine embryonic fibroblast cells were cultured in Dulbecco medium (Life Technologies Limited, Paisley, UK), supplemented with 10% foetal bovine serum (GE Healthcare, Logan, UT, USA) and 2 mM glutamine (Sigma-Aldrich, Merck KGaA, Saint Louis, MO, USA). All culture media contained antibiotics: 100 U/mL penicillin and 100 μg/mL streptomycin (Polfa–Tarchomin, Warsaw, Poland). All cell lines were cultured during the entire experiment in a humid atmosphere at 37 °C and 5% CO2. […] The procedure was repeated every year or in the case of less frequently used lines: after thawing.
(§2) Twenty-four h before adding the tested compounds, all cell lines were seeded in 96-well plates (Sarstedt, Nümbrecht, Germany) in appropriate media with 10^4 cells per well. All cell lines were exposed to each tested agent at four different concentrations in the range 100–0.01 μg/mL for 72 h. […] Additionally, all cell lines were exposed to DMSO (solvent used for tested compounds) (POCh, Gliwice, Poland) at concentrations corresponding to these present in tested agents’ dilutions. After 72 h sulforhodamine B assay (SRB) was performed.
(§3) After 72 h of incubation with the tested compounds, cells were fixed in situ by gently adding 50 μL per well of cold 50% trichloroacetic acid TCA (POCh, Gliwice, Poland) and were incubated at 4 °C for one hour. Following, wells were washed four times with water and air dried. Next, 50 μL of 0.1% solution of sulforhodamine B (Sigma-Aldrich, Merck KGaA, Saint Louis, MO, USA) in 1% acetic acid (POCh, Gliwice, Poland) were added to each well and plates were incubated at room temperature for 0.5 h. After incubation time, unbound dye was removed by washing plates four times with 1% acetic acid whereas stain bound to cells was solubilized with 10 mM Tris base (Sigma-Aldrich, Merck KGaA, Saint Louis, MO, USA). Absorbance of each solution was read at Synergy H4 Hybrid Multi-Mode Microplate Reader (BioTek Instruments, Inc., Winooski, VT, USA) at the 540 nm wavelength.
(§4) IC50 values were calculated in Cheburator 0.4, Dmitry Nevozhay software (version 1.2.0 software by Dmitry Nevozhay, 2004–2014, http://www.cheburator.nevozhay.com, freely available) for each experiment. Compounds at each concentration were tested in triplicates in single experiment and each experiment was repeated at least three times independently. The Resistance Index (RI) was defined as the ratio of IC50 for a given compound calculated for resistant cell line to that measured for its parental drug sensitive cell line (Table 1).

[2] = test system: human lung adenocarcinoma (A549); assay: cells; settings: for IC50: A549, 72 h, read-out: IC50 A549; for SI A549: SI = IC50 BALB/3T3 / IC50 A549
Text: as §1, §2, §3, §4

[3] = test system: doxorubicin-resistant human colon adenocarcinoma subline (LoVo/DX); assay: cells; settings: for IC50: LoVo/DX, 72 h, read-out: IC50 LoVo/DX; for RI (resistance index): RI = IC50 LoVo/DX / IC50 LoVo; for SI LoVo/DX: SI = IC50 BALB/3T3 / IC50 LoVo/DX
Text: as §1, §2, §3, §4

[4] = test system: human colon adenocarcinoma cell line (LoVo); assay: cells; settings: for IC50: LoVo, 72 h, read-out: IC50 LoVo; for SI LoVo: SI = IC50 BALB/3T3 / IC50 LoVo
Text: as §1, §2, §3, §4

[5] = test system: normal murine embryonic fibroblast cell line (BALB/3T3); assay: Antiproliferative SRB assay, 72 h, normal cells BALB/3T3; settings: BALB/3T3, 72 h, mean ± SD
Text: as §1, §2, §3, §4

SMILES | IC50 ([1]; MCF-7, 72 h, SRB, mean ± SD) | SI MCF-7 [1] | IC50 ([2]; SRB, mean ± SD) | SI A549 [2] | IC50 ([3]; SRB, mean ± SD) | RI (resistance index) [3] | SI LoVo/DX [3] | IC50 ([4]; SRB, mean ± SD) | SI LoVo [4] | IC50 [5] | IC50 ([1]; Homo sapiens, MCF7, 72 h) | IC50 ([2]; Homo sapiens) | IC50 ([3]; Homo sapiens) | IC50 ([4]; Homo sapiens) | IC50 ([5]; Mus musculus) | IC50 ([2]; Homo sapiens, SRB, mean ± SD) | IC50 ([3]; Homo sapiens, SRB, mean ± SD)
N.N.[Cl][Pt][Cl] [Cisplatin, reference compound] | 10700 ± 753 nM | 0.36 | 6370 ± 1410 nM | 0.61 | 5700 ± 630 nM | 1.3 | 0.68 | 4370 ± 730 nM | 0.89 | 3900 ± 1500 nM |  |  |  |  |  |  | 
COc1c(Br)c2c(c(OC)c1OC)-c1ccc(OC)c(=O)cc1[C@@H](NC(C)=O)CC2 [Compound 2, 4-bromocolchicine] |  | 5.26 |  | 1.35 |  | 18.45 | 0.09 |  | 1.69 |  | 27 ± 8 nM | 105 ± 8 nM | 1550 ± 170 nM | 84 ± 21 nM | 142 ± 73 nM |  | 
COc1c(Br)c2c(c(OC)c1OC)-c1ccc(SC)c(=O)cc1[C@@H](NC(C)=O)CC2 [Compound 3, 4-bromothiocolchicine] |  | 6.87 |  | 10.3 |  | 9.64 | 0.76 |  | 7.36 |  | 15 ± 2 nM | 10 ± 0.1 nM | 135 ± 12 nM | 14 ± 4 nM | 103 ± 89 nM |  | 
COc1c(Br)c2c(c(OC)c1OC)-c1ccc(SC)c(=O)cc1[C@@H](N)CC2 [Compound 4, 4-bromo-N-deacetylthiocolchicine] |  | 7.08 |  |  |  | 5.60 | 1.80 |  | 10.08 |  | 178 ± 20 nM | 115 ± 7 nM | 700 ± 88 nM | 125 ± 44 nM | 1260 ± 796 nM |  | 
COc1c(Br)c2c(c(OC)c1OC)-c1ccc(SC)c(=O)cc1[C@@H](NC(=O)OCCO)CC2 [Compound 5] |  | 1.82 |  | 1.41 |  | 13.65 | 0.10 |  | 1.41 |  | 57 ± 11 nM | 74 ± 9 nM | 1010 ± 20 nM | 74 ± 19 nM | 104 ± 43 nM |  | 
COC(=O)N[C@H]1CCc2c(Br)c(OC)c(OC)c(OC)c2-c2ccc(SC)c(=O)cc21 [Compound 6] |  |  |  |  |  |  |  |  |  |  |  | 10 ± 0.1 nM | 50 ± 10 nM | 7 ± 2 nM | 66 ± 31 nM |  | 
CCOC(=O)N[C@H]1CCc2c(Br)c(OC)c(OC)c(OC)c2-c2ccc(SC)c(=O)cc21 [Compound 7] |  | 5.67 |  |  |  | 6.45 | 1.44 |  |  |  | 18 ± 2 nM | 12 ± 4 nM | 71 ± 10 nM | 11 ± 4 nM | 102 ± 63 nM |  | 
COc1c(Br)c2c(c(OC)c1OC)-c1ccc(SC)c(=O)cc1[C@@H](NC(=O)OCC(F)(F)F)CC2 [Compound 8] |  | 2.51 |  |  |  | 4.11 | 1.86 |  |  |  | 55 ± 26 nM | 30 ± 21 nM | 74 ± 7 nM | 18 ± 10 nM | 138 ± 10 nM |  | 
CCCOC(=O)N[C@H]1CCc2c(Br)c(OC)c(OC)c(OC)c2-c2ccc(SC)c(=O)cc21 [Compound 9] |  | 4.30 |  |  |  | 6.55 | 1.61 |  |  |  | 27 ± 7 nM | 12 ± 4 nM | 72 ± 11 nM | 11 ± 0.1 nM | 116 ± 9 nM |  | 
COc1c(Br)c2c(c(OC)c1OC)-c1ccc(SC)c(=O)cc1[C@@H](NC(=O)OC(C)C)CC2 [Compound 10] |  | 1.31 |  | 1.94 |  |  | 1.94 |  | 3.20 |  | 132 ± 17 nM | 89 ± 20 nM | 89 ± 26 nM | 54 ± 17 nM | 173 ± 108 nM |  | 
CCCCOC(=O)N[C@H]1CCc2c(Br)c(OC)c(OC)c(OC)c2-c2ccc(SC)c(=O)cc21 [Compound 11] |  | 1.17 |  | 1.54 |  |  | 1.60 |  | 2.35 |  | 125 ± 14 nM | 95 ± 5 nM | 91 ± 9 nM | 62 ± 13 nM | 146 ± 14 nM |  | 
COc1c(Br)c2c(c(OC)c1OC)-c1ccc(SC)c(=O)cc1[C@@H](NC(=O)OCCOCCO)CC2 [Compound 12] |  | 1.08 |  |  |  | 15.09 | 0.03 |  | 0.48 |  | 125 ± 15 nM | 93 ± 14 nM | 4240 ± 1330 nM | 281 ± 185 nM | 135 ± 15 nM |  | 
COc1cccc2c1C(=O)c1c(O)c3c(c(O)c1C2=O)C[C@@](O)(C(=O)CO)C[C@@H]3O[C@H]1C[C@H](N)[C@H](O)[C@H](C)O1 [Doxorubicin, reference compound] |  |  |  |  |  |  |  |  |  |  |  |  |  |  | 166 ± 74 nM | 258 ± 44 nM | 4750 ± 990 nM
